This series has as its system bulged mir-143 target sequence. As to the kind of experiment: pGL3-bulge(×3) luciferase assay in HeLa cells. Format: cell-based, human. The settings on record: 24 hours; for luciferase activity from pGL3-bulge(×3): HeLa, 11, 33 and 100 nM; for luciferase expression: HeLa cells. The method, then:
An expression system based on the pGL3-Control (Promega Corp., Madison Wis.) reporter vector and comprising predicted miRNA binding sites was used in transient transfections of HeLa cells with plasmids expressing oligomeric compounds mimicking miRNAs, pre-miRNAs or pri-miRNAs in order to assess the ability of these miRNA mimics to bind and regulate the expression of the luciferase reporter. The effect of increasing the copy number of the miRNA-binding site in the target was also tested by including multiple binding sites in artificial reporter constructs. It is understood that the presence of multiple miRNA-binding sites in a target can include binding sites for different miRNAs.
The following reporter plasmids were constructed by cloning the specified fragment into the XbaI site of the pGL3-control plasmid, placing the potential miRNA-binding site in the 3′-UTR of the luciferase reporter: The reporter plasmid pGL3-bulge(×3) contains three contiguous copies of the sequence ([…]; herein incorporated as SEQ ID NO: 874) which represents a sequence complementary to the mir-143 miRNA except that it is missing 2 nucleotides such that the mir-143 miRNA is presumed to adopt a bulged structure when it hybridizes to this target sequence. The pGL3-GLO1 reporter plasmid contains a DNA fragment comprising the 3′-UTR of the GLO1 sequence; this fragment was PCR-amplified using a primer beginning at nucleotide number 621 of the GLO1 sequence (GenBank Accession NM_006708.1, SEQ ID NO: 821) and the downstream primer hybridizing to the poly A tail. The pGL3-PP2A reporter plasmid contains a DNA fragment comprising the 3′-UTR of the PP2A gene; this fragment was PCR-amplified using a primer beginning at nucleotide number 921 of the PP2A sequence (GenBank Accession NM_004156.1) and the downstream primer hybridizing to the poly A tail. The reporter plasmid pGL3-ERK5-3′-UTR(×1) contains one copy of the sequence […] (herein incorporated as SEQ ID NO: 875), found in the 3′-UTR of ERK5 and predicted by Lewis, et al. to be bound by the mir-143 miRNA, and the reporter plasmid pGL3-ERK5-3′UTR(×3) has three contiguous copies of this sequence. The reporter plasmid pGL3-ERK5-3′UTR(ext) contains one copy of the sequence […] (herein incorporated as SEQ ID NO: 876), which includes an additional ten nucleotides at either end of the mir-143 binding site in 3′-UTR of ERK5 predicted by Lewis, et al. (Lewis et al., Cell, 2003, 115, 787-798). The plasmids pGL3-ERK5-cds(×1), pGL3-ERK5-cds(×2), pGL3-ERK5-cds(×3), and pGL3-ERK5-cds(×5) contain one, two, three or five contiguous copies, respectively, of the novel mir-143 binding site ([…]; herein incorporated as SEQ ID NO: 877) we identified within the coding sequence of ERK5. The unmodified pGL3-Control luciferase reporter vector was used as a negative control, and the pGL3-mir-143 sensor reporter plasmid was used as a positive control.
HeLa cells were routinely cultured and passaged as described. In some embodiments, HeLa cells were transfected with 0.05 μg of the relevant pGL3-sensor plasmid and 0.01 μg pRL-CMV plasmid. Additionally, in some embodiments, cells were treated at various dosages (11 nM, 33 nM, and 100 nM) with the following oligomeric compound mimics: 1) ds-mir-143, or 2) ds-Control as described. In accordance with methods described in Example 12, a luciferase assay was performed 24-hours after transfection. The results, shown in Tables 40 and 41, are an average of three trials. Data are presented as percent untreated control (luciferase plasmid only, not treated with oligomeric compound) luciferase expression, normalized to pRL-CMV levels.

“ds-mir-143: double-stranded RNA of ISIS 342199 hybridized to its perfect complement ISIS 342200 (sense UGAGAUGAAGCACUGUAGCUCA; antisense UGAGCUACAGUGCUUCAUCUCA; RNA, backbone not given here)”: the “luciferase activity from pGL3-bulge(×3)” value was “dose-dependent inhibition of luciferase activity”. Where the note is “listed as mir-143 dsRNA mimic compound”, the “luciferase activity from pGL3-bulge(×3)” value is recorded as “inhibited luciferase activity from the pGL3-bulge(×3) sensor plasmid in a dose-dependent manner”. This substance gave a luciferase expression (Table 40, pGL3-bulge(x3), 11 nM) of 50.7 percent untreated control. For the same substance, under “Table 40, pGL3-bulge(x3), 33 nM”, the luciferase expression was found to be 35.4 percent untreated control. In addition, the luciferase expression (Table 40, pGL3-bulge(x3), 100 nM) was determined as 17.2 percent untreated control. Under “Table 41, pGL3-bulge(x3), 11 nM”, this substance had a luciferase expression of 36.1 percent untreated control. This substance also returned a luciferase expression (Table 41, pGL3-bulge(x3), 33 nM) of 33.9 percent untreated control. For the same substance, the luciferase expression (Table 41, pGL3-bulge(x3), 100 nM) was 22.2 percent untreated control.

These data come from US8178506B2, “Oligomeric compounds and compositions for use in modulation of small non-coding RNAs” (Regulus Therapeutics Inc., priority 2003, dated 2012).
